Reference: the NIST ThermoML archive (doi:10.1021/je700297c)
± gives the expanded uncertainty stated by the source.

Assay: activity coefficient (dimensionless); of the first substance listed, at infinite dilution; xn = mol fraction of the nth substance listed
Conditions: Liquid, Chromatography, x1 = 0

SMILES	activity coefficient (298 K)	activity coefficient (323 K)	activity coefficient (303 K)	activity coefficient (333 K)
C=CCCCCCC [oct-1-ene] + CCCCn1cc[n+](C)c1.F[B-](F)(F)F	59.1 ± 4	48.3 ± 3.3		
C=CCCCCCC [oct-1-ene] + C[n+]1ccn(CCCC#N)c1.N#CN=C=[N-]		136 ± 9.3	142 ± 9.8	
C=CCCCCCC [oct-1-ene] + C[n+]1ccn(CCCC#N)c1.O=S(=O)([N-]S(=O)(=O)C(F)(F)F)C(F)(F)F		106 ± 7.2	119 ± 8.1	
CCCCCCCC [octane] + CCCCCCCCCCCCCCCC(=O)[O-].CCCCn1cc[n+](C)c1				1.6 ± 0.1
CCCCCCCC [octane] + CCCCCCCCCCCCCCCCCC(=O)[O-].CCCCn1cc[n+](C)c1		2.1 ± 0.2		1.6 ± 0.1
CCCCCCCC [octane] + CCCCCCCC[n+]1ccn(C)c1.F[B-](F)(F)F	16.1 ± 1.1	11 ± 0.8		
CCCCCCCC [octane] + CCCC[n+]1ccn(C)c1.O=S(=O)([N-]S(=O)(=O)C(F)(F)F)C(F)(F)F		23.4 ± 1.6		
CCCCCCCC [octane] + CCCCn1cc[n+](C)c1.F[B-](F)(F)F	117 ± 8	95.5 ± 6.5		
CCCCCCCC [octane] + C[n+]1ccn(CCCC#N)c1.N#CN=C=[N-]		204 ± 14	264 ± 18	
CCCCCCCC [octane] + C[n+]1ccn(CCCC#N)c1.O=S(=O)([N-]S(=O)(=O)C(F)(F)F)C(F)(F)F		159 ± 11	191 ± 13	
C1CCOC1 [tetrahydrofuran] + CCCCCCCCCCCCCCCC(=O)[O-].CCCCn1cc[n+](C)c1				0.6 ± 0.1
C1CCOC1 [tetrahydrofuran] + CCCCCCCCCCCCCCCCCC(=O)[O-].CCCCn1cc[n+](C)c1		0.7 ± 0.1		0.6 ± 0.1
C1CCOC1 [tetrahydrofuran] + CCCCCCCC[n+]1ccn(C)c1.F[B-](F)(F)F	0.7 ± 0.1	0.6 ± 0.1		
C1CCOC1 [tetrahydrofuran] + CCCC[n+]1ccn(C)c1.O=S(=O)([N-]S(=O)(=O)C(F)(F)F)C(F)(F)F		0.4 ± 0.1		
C1CCOC1 [tetrahydrofuran] + CCCCn1cc[n+](C)c1.F[B-](F)(F)F	1.4 ± 0.1	1.4 ± 0.1		
C1CCOC1 [tetrahydrofuran] + C[n+]1ccn(CCCC#N)c1.N#CN=C=[N-]		1.5 ± 0.1	1.6 ± 0.1	
C1CCOC1 [tetrahydrofuran] + C[n+]1ccn(CCCC#N)c1.O=S(=O)([N-]S(=O)(=O)C(F)(F)F)C(F)(F)F		1.2 ± 0.1	1.3 ± 0.1	

SMILES	activity coefficient (298 K)	activity coefficient (323 K)	activity coefficient (303 K)	activity coefficient (333 K)
c1ccsc1 [thiophene] + CCCCCCCCCCCCCCCC(=O)[O-].CCCCn1cc[n+](C)c1				0.9 ± 0.1
c1ccsc1 [thiophene] + CCCCCCCCCCCCCCCCCC(=O)[O-].CCCCn1cc[n+](C)c1		0.8 ± 0.1		0.8 ± 0.1
c1ccsc1 [thiophene] + CCCCCCCC[n+]1ccn(C)c1.F[B-](F)(F)F	0.9 ± 0.1	0.8 ± 0.1		
c1ccsc1 [thiophene] + CCCC[n+]1ccn(C)c1.O=S(=O)([N-]S(=O)(=O)C(F)(F)F)C(F)(F)F		0.7 ± 0.1		
c1ccsc1 [thiophene] + CCCCn1cc[n+](C)c1.F[B-](F)(F)F	1.7 ± 0.1	1.5 ± 0.1		
c1ccsc1 [thiophene] + C[n+]1ccn(CCCC#N)c1.N#CN=C=[N-]		1.6 ± 0.1	1.7 ± 0.1	
c1ccsc1 [thiophene] + C[n+]1ccn(CCCC#N)c1.O=S(=O)([N-]S(=O)(=O)C(F)(F)F)C(F)(F)F		1.4 ± 0.1	1.5 ± 0.1	
Cc1ccccc1 [toluene] + CCCCCCCCCCCCCCCC(=O)[O-].CCCCn1cc[n+](C)c1				0.8 ± 0.1
Cc1ccccc1 [toluene] + CCCCCCCCCCCCCCCCCC(=O)[O-].CCCCn1cc[n+](C)c1		0.8 ± 0.1		0.8 ± 0.1
Cc1ccccc1 [toluene] + CCCCCCCC[n+]1ccn(C)c1.F[B-](F)(F)F	1 ± 0.1	0.9 ± 0.1		
Cc1ccccc1 [toluene] + CCCC[n+]1ccn(C)c1.O=S(=O)([N-]S(=O)(=O)C(F)(F)F)C(F)(F)F		1.2 ± 0.1		
Cc1ccccc1 [toluene] + CCCCn1cc[n+](C)c1.F[B-](F)(F)F	2.5 ± 0.2	2.4 ± 0.2		
Cc1ccccc1 [toluene] + C[n+]1ccn(CCCC#N)c1.N#CN=C=[N-]		4 ± 0.3	4.3 ± 0.3	
Cc1ccccc1 [toluene] + C[n+]1ccn(CCCC#N)c1.O=S(=O)([N-]S(=O)(=O)C(F)(F)F)C(F)(F)F		3.1 ± 0.2	3.3 ± 0.2	
O [water] + CCCC[n+]1ccn(C)c1.O=S(=O)([N-]S(=O)(=O)C(F)(F)F)C(F)(F)F		2.6 ± 0.2		
O [water] + C[n+]1ccn(CCCC#N)c1.O=S(=O)([N-]S(=O)(=O)C(F)(F)F)C(F)(F)F		1.8 ± 0.1		
